What was measured:
[1] = molecular target: T1, Human Rheumatoid Synovial Collagenase (Homo sapiens, UniProt P03956); experiment: Collagenase inhibition (procedure of Cawston and Barrett, acetyl 14C collagen); format: biochemical; conditions: 37° C., 16 hours, native acetyl 14C collagen, Tris HCl-CaCl2 pH 7.6
T1 construct: from tissue
T1 sequence (P03956 100-469): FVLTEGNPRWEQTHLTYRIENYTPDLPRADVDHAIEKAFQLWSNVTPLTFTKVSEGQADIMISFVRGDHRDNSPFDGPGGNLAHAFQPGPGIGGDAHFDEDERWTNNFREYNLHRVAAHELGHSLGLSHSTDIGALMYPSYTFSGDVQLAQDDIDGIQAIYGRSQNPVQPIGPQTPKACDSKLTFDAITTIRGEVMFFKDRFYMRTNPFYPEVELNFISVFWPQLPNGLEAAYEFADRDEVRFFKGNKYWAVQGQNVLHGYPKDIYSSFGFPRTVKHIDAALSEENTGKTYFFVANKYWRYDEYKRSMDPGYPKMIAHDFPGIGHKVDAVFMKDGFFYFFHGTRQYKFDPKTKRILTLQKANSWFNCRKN
Method: This was determined following the procedure of Cawston and Barrett, Anal. Biochem., 99, 340-345 (1979) whereby the 1 mM of the inhibitor being tested or dilutions thereof are incubated at 37° C. for 16 hours with native collagen and collagenase (buffered with Tris HCl--CaCl2; pH 7.6). The collagen is acetyl ^14 C collagen. The samples are centrifuged to sediment undigested collagen and an aliquot of the radiactive supernatant removed for assay on a scintillation counter as a measure of hydrolysis. The collagenase activity in the presence of 1 mM inhibitor, or a dilution thereof, is compared to activity in a control devoid of inhibitor and the results reported as that inhibitor concentration effecting 50% inhibition of the collagenase.

[2] = system: rat model of inflammatory arthritis; experiment: Rat model of inflammatory arthritis induced by Type II collagen (Trentham et al.); format: in vivo; conditions: prednisolone 0.625 mg/kg b.i.d.
Method: The therapeutic effectivness is assessed in the rat model of inflammatory arthritis described by Trentham et al. (1977). In this model, the arthritis, induced by an intradermal injection of Type II collagen, generally develops in both hind paws and the progression and severity of the lesion are monitored by physical measurements of the malleolar width and ankle extensibility.
The compound of Example II in the present specification was administered by intraperitoneal injections at 100 mg/kg twice daily for 21 days commencing seven days after the injection of the disease.
Drugs (Example 11 or prednisolone) and vehicle were administered to groups of 10 rats each. Physical measurements on the rat paws were made weekly for four weeks and consisted of (a) the distance between the medial and lateral malleolus (malleolar width) and (b) the ankle extension which was measured by applying a standard force to th rat paw and measuring the angle formed between the flexor surface of the foot and the tibia. Evidence of a therapeutic effect was denoted by a significant reduction in malleolar width and a significant increase in ankle extension. Both measurements were carried out in apparatus designed for the purpose. Area-under-the-curve data from these time course experiments was examinaed by non-parametic statistical analysis. The prednisolone standard was given at a dose of 0.625 mg/kg b.i.d. Prednisolone was chosen as a standard since steroids are known to be effective both clinically in Rheumatoid Arthritis and in animal models of arthritis.

[3] = arthritic rats' paws, Example 11 100 mg/kg i.p. twice daily for 21 days, area-under-the-curve data

IC50 [1]: 0.8 µM
SMILES: CNC(=O)[C@H](Cc1ccc(OC)cc1)NC(=O)[C@H](CC(C)C)N[C@H](CCNC(=O)OCc1ccccc1)C(=O)O [Example 11, N-[3-N-(Benzyloxycarbonyl)amino-1-(R)-carboxypropyl]-L-leucyl-O-methyl-L-tyrosine N-Methylamide]
Ankle extension, percentage change from control, experiment number 1 [2, 3]: 66% | Ankle extension, percentage change from control, experiment number 2 [2, 3]: 39% | Ankle extension, percentage change from control, experiment number 3 [2, 3]: 39% | Malleolar width, percentage change from control, experiment number 1 [2, 3]: 65% | Malleolar width, percentage change from control, experiment number 2 [2, 3]: 43% | Malleolar width, percentage change from control, experiment number 3 [2, 3]: 41% | Ankle extension, percentage change from control, mean ([2]; mean of experiments 1-3, Example 11 100 mg/kg i.p. twice daily): 48%

From patent publication US4568666A, “Carboxylalkyl peptide derivatives” (G. D. Searle & Co., priority 1984, dated 1986)
